Columns and labels:
Type in all cases: cell-based
[1] = target: T1, hNLRP3 (Homo sapiens, UniProt Q96P20); experiment: hNLRP3 agonist assay: IL-1β production in PMA-differentiated THP-1 cells (ELISA); settings: Table 2, 4 hours, IL-1β by ELISA
T1 construct: THP-1 cells were purchased from the American Type Culture Collection; host or cells: THP-1 cells, PMA-differentiated

[2] = target: T2, TLR7 (Homo sapiens, UniProt Q9NYK1); experiment: TLR7 EC50 assay; settings: Table 2
T2 sequence (Q9NYK1 27-1049): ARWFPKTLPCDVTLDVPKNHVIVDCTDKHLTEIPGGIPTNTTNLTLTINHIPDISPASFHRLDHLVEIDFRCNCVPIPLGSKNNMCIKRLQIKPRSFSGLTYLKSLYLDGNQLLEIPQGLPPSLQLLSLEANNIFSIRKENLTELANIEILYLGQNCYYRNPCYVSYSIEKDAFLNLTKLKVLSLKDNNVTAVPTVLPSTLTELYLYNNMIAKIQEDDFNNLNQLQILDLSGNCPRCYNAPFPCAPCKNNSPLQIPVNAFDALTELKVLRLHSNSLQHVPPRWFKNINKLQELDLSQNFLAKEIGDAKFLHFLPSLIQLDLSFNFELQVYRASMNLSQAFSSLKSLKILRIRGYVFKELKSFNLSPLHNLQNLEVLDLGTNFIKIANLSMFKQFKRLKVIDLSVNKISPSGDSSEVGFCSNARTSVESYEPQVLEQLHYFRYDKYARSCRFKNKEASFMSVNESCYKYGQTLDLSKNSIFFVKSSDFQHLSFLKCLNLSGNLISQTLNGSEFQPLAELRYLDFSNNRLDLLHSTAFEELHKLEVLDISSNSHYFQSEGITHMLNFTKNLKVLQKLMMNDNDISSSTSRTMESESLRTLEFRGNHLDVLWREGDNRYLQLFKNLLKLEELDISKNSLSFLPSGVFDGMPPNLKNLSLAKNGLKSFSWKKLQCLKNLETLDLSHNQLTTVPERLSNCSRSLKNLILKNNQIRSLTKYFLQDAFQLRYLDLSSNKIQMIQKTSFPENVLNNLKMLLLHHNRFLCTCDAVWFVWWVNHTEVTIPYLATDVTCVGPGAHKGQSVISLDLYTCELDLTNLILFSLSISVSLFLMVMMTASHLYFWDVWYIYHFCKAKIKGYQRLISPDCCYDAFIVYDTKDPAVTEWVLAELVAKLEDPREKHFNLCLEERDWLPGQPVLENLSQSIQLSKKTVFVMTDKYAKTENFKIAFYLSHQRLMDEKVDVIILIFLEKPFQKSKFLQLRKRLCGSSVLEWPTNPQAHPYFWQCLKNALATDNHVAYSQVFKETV

[3] = target: T3, TLR8 (Homo sapiens, UniProt Q9NR97); experiment: TLR8 EC50 assay; settings: Table 2
T3 sequence (Q9NR97 27-1041): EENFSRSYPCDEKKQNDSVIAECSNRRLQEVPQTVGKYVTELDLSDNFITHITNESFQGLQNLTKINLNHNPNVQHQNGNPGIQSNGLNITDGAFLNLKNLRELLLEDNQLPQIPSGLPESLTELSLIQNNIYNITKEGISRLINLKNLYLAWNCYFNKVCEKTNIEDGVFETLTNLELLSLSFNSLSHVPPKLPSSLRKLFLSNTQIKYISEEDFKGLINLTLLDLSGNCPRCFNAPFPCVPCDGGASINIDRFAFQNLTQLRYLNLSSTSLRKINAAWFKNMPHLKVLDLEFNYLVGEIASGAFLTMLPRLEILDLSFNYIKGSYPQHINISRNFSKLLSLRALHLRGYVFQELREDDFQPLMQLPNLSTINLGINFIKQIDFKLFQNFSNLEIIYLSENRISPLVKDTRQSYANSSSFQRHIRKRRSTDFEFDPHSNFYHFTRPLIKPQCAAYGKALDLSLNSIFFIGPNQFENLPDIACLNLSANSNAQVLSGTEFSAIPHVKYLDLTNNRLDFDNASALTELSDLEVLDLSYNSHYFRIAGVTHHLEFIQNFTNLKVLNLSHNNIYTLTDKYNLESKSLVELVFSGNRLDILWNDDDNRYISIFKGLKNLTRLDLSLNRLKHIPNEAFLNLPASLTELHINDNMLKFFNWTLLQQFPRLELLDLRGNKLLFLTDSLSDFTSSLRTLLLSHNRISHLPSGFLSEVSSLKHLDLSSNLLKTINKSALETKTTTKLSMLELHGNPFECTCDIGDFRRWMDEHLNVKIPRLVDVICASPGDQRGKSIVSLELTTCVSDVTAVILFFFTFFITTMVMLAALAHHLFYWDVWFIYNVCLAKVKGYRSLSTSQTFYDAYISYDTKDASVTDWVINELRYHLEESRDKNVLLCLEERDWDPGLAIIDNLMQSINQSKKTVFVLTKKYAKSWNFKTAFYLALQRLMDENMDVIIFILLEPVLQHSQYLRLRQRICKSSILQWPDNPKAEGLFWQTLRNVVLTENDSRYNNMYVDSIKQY

T1 sequence (Q96P20 whole entry): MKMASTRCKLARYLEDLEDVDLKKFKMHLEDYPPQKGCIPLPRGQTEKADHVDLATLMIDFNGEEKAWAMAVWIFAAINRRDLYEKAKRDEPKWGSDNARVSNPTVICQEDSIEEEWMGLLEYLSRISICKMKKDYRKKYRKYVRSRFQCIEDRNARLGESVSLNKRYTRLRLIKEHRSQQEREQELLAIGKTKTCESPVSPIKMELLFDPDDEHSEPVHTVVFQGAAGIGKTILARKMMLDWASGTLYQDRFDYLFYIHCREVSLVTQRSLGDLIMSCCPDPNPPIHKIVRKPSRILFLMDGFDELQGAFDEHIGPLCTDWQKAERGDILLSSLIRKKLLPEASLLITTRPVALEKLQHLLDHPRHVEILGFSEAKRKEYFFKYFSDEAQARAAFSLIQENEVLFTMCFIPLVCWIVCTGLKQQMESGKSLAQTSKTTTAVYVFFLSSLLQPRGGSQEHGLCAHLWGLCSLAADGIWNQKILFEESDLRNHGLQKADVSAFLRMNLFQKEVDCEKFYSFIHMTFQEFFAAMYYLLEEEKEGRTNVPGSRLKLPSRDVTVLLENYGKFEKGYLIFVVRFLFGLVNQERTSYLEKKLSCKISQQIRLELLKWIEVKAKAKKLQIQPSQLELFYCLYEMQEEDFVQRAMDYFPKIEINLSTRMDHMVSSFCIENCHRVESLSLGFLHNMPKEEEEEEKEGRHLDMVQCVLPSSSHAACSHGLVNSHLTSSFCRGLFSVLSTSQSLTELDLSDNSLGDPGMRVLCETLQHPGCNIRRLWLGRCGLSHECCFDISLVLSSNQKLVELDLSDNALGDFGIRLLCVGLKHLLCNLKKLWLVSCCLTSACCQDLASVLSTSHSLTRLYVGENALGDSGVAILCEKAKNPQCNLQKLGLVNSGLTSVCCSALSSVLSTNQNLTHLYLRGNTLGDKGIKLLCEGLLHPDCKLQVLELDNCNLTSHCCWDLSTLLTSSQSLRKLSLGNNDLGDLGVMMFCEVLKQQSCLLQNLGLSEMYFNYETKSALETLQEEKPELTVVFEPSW

Row | SMILES | EC50 [1] [µM] | EC50 [2] [µM] | EC50 [3] [µM]
1 | COc1ccc(-c2ccc3c(c2)nc(N)c2nc(CCCO)[nH]c23)cc1 [Compound 211, 3-[4-amino-7-(4-methoxyphenyl)-1H-imidazo[4,5-c]quinolin-2-yl]propan-1-ol] | > 100 | > 100 | > 100
2 | Nc1nc2cc(-c3ccc(F)cc3)ccc2c2[nH]c(CCCO)nc12 [Compound 212, 3-[4-amino-7-(4-fluorophenyl)-1H-imidazo[4,5-c]quinolin-2-yl]propan-1-ol] | > 100 | > 100 | 20 to 100
3 | Cc1ccncc1-c1ccc2c(c1)nc(N)c1nc(CCCO)[nH]c12 [Compound 213, 3-[4-amino-7-(4-methylpyridin-3-yl)-1H-imidazo[4,5-c]quinolin-2-yl]propan-1-ol] | > 100 | 1 to 20 | > 100
4 | Cc1ncccc1-c1ccc2c(c1)nc(N)c1nc(CCCO)[nH]c12 [Compound 214, 3-[4-amino-7-(2-methylpyridin-3-yl)-1H-imidazo[4,5-c]quinolin-2-yl]propan-1-ol] | > 100 | 20 to 100 | > 100
5 | Nc1nc2cc(-c3cccnc3Cl)ccc2c2[nH]c(CCCO)nc12 [Compound 215, 3-[4-amino-7-(2-chloropyridin-3-yl)-1H-imidazo[4,5-c]quinolin-2-yl]propan-1-ol] | > 100 | 20 to 100 | 20 to 100
6 | CC(C)(C)OC(=O)N1CCC(c2nc3c(N)nc4cc(-n5cccn5)ccc4c3[nH]2)CC1 [Compound 218] | ≤ 1 | > 100 | > 100
7 | CC(C)(C)OC(=O)N1CCC(c2nc3c(N)nc4cc(-c5ccccc5)ccc4c3[nH]2)CC1 [Compound 219] | ≤ 1 | > 100 | > 100
8 | Nc1nc2cc(Br)ccc2c2[nH]c(C3CCN(S(=O)(=O)c4ccccc4)CC3)nc12 [Compound 220] | 1 to 20 | > 100 | > 100
9 | CC(C)(C)OC(=O)N1CCC(c2nc3c(N)nc4cc(-c5cccnc5)ccc4c3[nH]2)CC1 [Compound 221] | 1 to 20 | > 100 | > 100
10 | Nc1nc2cc(-c3ccccc3)ccc2c2[nH]c(C3CCNCC3)nc12 [Compound 222] | 1 to 20 | > 100 | > 100
11 | Nc1nc2ccccc2c2[nH]c(C3CCNCC3)nc12 [Compound 224] | 20 to 100 | > 100 | > 100
12 | CC(C)(C)OC(=O)N1CCC(c2nc3c(N)nc4cc(Br)ccc4c3[nH]2)CC1 [Compound 225] | 1 to 20 | > 100 | > 100
13 | CC(=O)N1CCC(c2nc3c(N)nc4cc(Br)ccc4c3[nH]2)CC1 [Compound 226] | 20 to 100 | > 100 | > 100
14 | CC(=O)NCCCn1c(C2CCN(C(=O)c3ccccc3)CC2)nc2c(N)nc3cc(Br)ccc3c21 [Compound 227] | 20 to 100 | > 100 | > 100
15 | CN1CCC(c2nc3c(N)nc4ccccc4c3[nH]2)CC1 [Compound 228] | 20 to 100 | > 100 | > 100
16 | Nc1nc2cc(-c3cc[nH]n3)ccc2c2[nH]c(CN3CC4COCC4C3)nc12 (stereo not drawn) [Compound 232] | 1 to 20 | > 100 | > 100
17 | Nc1nc2cc(-c3cc[nH]n3)ccc2c2[nH]c(CN3CCCC3)nc12 [Compound 233] | ≤ 1 | > 100 | > 100
18 | Nc1nc2cc(-c3ccc[nH]c3=O)ccc2c2[nH]c(CCCO)nc12 [Compound 238] | 1 to 20 | > 100 | > 100
19 | Nc1nc2cc(-c3cccc(=O)[nH]3)ccc2c2[nH]c(CCCO)nc12 [Compound 239] | 1 to 20 | > 100 | > 100
20 | CCNC(C)c1nc2c(N)nc3cc(-c4cc[nH]n4)ccc3c2[nH]1 (stereo not drawn) [Compound 240] | 1 to 20 | > 100 | > 100
21 | CCN(C(C)=O)C(C)c1nc2c(N)nc3cc(-c4cc[nH]n4)ccc3c2[nH]1 (stereo not drawn) [Compound 241] | 1 to 20 | > 100 | > 100
22 | CCN(C(=O)OC(C)(C)C)C(C)c1nc2c(N)nc3cc(-c4cc[nH]n4)ccc3c2n1Cc1ccc(OC)cc1 (stereo not drawn) [Compound 242] | 1 to 20 | > 100 | > 100
23 | COc1cccc(-c2ccc3c(c2)nc(N)c2nc(CCCO)[nH]c23)n1 [Compound 246] | 1 to 20 | > 100 | > 100
24 | COc1cccc(-c2ccc3c(c2)nc(N)c2nc(CCCOCc4ccccc4)[nH]c23)n1 [Compound 247] | 1 to 20 | > 100 | > 100
25 | Nc1nc2cc(-c3ccc[nH]c3=O)ccc2c2[nH]c(CCCOCc3ccccc3)nc12 [Compound 249] | 1 to 20 | > 100 | > 100
26 | CCNC(C)(C)c1nc2c(N)nc3cc(-c4cc[nH]n4)ccc3c2[nH]1 [Compound 251] | 1 to 20 | > 100 | > 100
27 | CCN(C(=O)OC(C)(C)C)C(C)(C)c1nc2c(N)nc3cc(-c4cc[nH]n4)ccc3c2n1Cc1ccc(OC)cc1 [Compound 252] | 1 to 20 | > 100 | > 100
28 | CCN(C(C)=O)C(C)(C)c1nc2c(N)nc3cc(-c4cc[nH]n4)ccc3c2[nH]1 [Compound 253] | 1 to 20 | > 100 | > 100

Reference: patent US11072612B2, “NLRP3 modulators” (INNATE TUMOR IMMUNITY, INC., priority 2016, dated 2021)
